pIC50: −log10 of the molar value.
Biological target: T1, Polθ (truncated Polθ-Hel protein containing the helicase domain 67-894) (Homo sapiens, UniProt O75417)
T1 construct: a truncated Polθ protein (Polθ-Hel containing the helicase domain (67-894))
Assay: Polθ ATPase assay (Biological Assay 1, ADP-Glo luminescence)
Format: biochemical
Conditions: Table B (Part B compounds); same assay as Biological Assay 1
Procedure: The Polθ ATPase assay was used to evaluate inhibitors of Polθ ATPase activity, in vitro. Experiments were performed using a truncated Polθ protein (Polθ-Hel containing the helicase domain (67-894), ATP and a DNA single strand Oligo (5′-CTGTCCTGCATGATG-3′) in the Polθ assay buffer (20 mM Tis-HCl (pH 8.8), MgCl2 5 mM, tween20 0.01%, NP40 0.01%, BSA 0.01%, DTT 1 mM). 2 μL of assay buffer containing Pole-Hel protein (0.5 nM) and DNA substrate (500 nM) was transferred into assay ready plates, containing 0.04 μL of compounds diluted in DMSO. After a 30 minutes incubation at 23° C. in the dark, the reaction was triggered by adding 2 μL of ATP (60 μM), in assay buffer. After 60 minutes at 23° C., 4 μl of ADP-Glo™ Reagent (Glo 1) was added followed by 40 minutes of incubation, then 8 μl of ADP-Glom kinase Detection Reagent (Glo 2) followed by 60 minutes of incubation at 23° C. Luminescence was then measured using Tecan F200 infinite plate reader. Raw data were analysed using GeneData to generate IC50 values.
The Polθ ATPase assay described in Biological Assay 1 above was used to evaluate inhibitors of Polθ ATPase activity for the compounds described in the Experimental Part B above, in vitro.

T1 sequence (O75417 67-894): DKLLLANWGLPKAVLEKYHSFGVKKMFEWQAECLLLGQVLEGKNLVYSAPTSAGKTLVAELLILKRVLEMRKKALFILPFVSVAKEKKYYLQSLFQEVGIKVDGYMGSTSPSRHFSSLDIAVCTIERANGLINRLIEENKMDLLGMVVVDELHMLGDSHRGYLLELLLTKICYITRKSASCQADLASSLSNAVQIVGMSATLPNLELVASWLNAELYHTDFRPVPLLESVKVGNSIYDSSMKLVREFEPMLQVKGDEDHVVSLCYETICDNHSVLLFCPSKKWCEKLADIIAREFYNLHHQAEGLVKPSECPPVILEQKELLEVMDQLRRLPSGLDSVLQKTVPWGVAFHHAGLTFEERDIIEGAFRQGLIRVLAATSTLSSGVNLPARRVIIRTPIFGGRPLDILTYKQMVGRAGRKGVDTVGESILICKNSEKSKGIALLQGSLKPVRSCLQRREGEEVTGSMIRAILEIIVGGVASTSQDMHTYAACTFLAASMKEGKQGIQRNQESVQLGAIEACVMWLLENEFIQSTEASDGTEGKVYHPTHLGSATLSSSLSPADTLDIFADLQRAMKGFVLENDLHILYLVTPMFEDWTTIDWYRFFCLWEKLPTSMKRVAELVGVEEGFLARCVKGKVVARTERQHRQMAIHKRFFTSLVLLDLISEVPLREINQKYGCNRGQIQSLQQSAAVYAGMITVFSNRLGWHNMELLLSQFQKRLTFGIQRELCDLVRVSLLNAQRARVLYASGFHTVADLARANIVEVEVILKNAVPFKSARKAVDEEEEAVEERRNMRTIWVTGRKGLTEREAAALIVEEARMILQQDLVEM

pIC50: > 7.00
Structure (SMILES): COc1cnc(Cl)cc1-c1cn(C)c(=O)cc1C(=O)Nc1nc2cnc(N3CCC(O)CC3)nc2s1 [Example 125]

— patent publication US20240336628A1, “NOVEL COMPOUNDS, COMPOSITIONS, AND THERAPEUTIC USES THEREOF” (Breakpoint Therapeutics GmbH, priority 2023, published 2024)
